Drawing on US8008291B2 (Mimetica Pty Ltd, priority 2008, dated 2011), this text covers IC50 for 26 molecules.

pIC50: −log10 of the molar value.

The target in the experiment is T1, human MC5R (hMC5R) (Homo sapiens, UniProt P33032).
T1 construct: purchased Perkin Elmer RBXMC5M400UA
T1 sequence (P33032 whole entry): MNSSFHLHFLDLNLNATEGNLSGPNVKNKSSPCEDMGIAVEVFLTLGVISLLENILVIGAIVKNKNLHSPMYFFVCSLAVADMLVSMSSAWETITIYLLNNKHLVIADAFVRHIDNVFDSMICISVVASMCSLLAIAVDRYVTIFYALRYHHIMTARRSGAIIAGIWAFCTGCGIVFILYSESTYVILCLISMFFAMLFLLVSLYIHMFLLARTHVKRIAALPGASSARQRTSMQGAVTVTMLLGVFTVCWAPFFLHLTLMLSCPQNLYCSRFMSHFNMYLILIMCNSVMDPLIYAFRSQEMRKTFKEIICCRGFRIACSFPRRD
The experiment can be described thus: Human MC5R radioligand binding assay (membranes, [125I] NDP-MSH displacement). Particulars: hMC5R binding; tested as trifluoroacetate or hydrochloride salts, or free bases; read-out: MC5R radioligand IC50. As to the method:
Assessments of compound binding to human MC5R (hMC5R) ) by displacement of an ^125I-labeled NDP-MSH receptor ligand peptide were performed essentially as described in the data sheets produced by Perkin Elmer to accompany their frozen hMC5R membranes (Perkin Elmer catalog number RBXMC5M400UA).
[^125I] NDP-MSH: radiolabeled in house and purified by HPLC:
• Na^125I (0.5 mCi, 17.4 Ci/mg) was added to 50 μL sodium phosphate (50 mM, pH7.4) in an eppendorf tube precoated with IODOGEN. After incubation for 10 mins the phosphate buffer containing the iodine was added to NDP-MSH (10 ul at 1 mg/mL) in a separate eppendorf tube. This was incubated for a further 10 mins. The iodinated NDP-MSH was purified by HPLC on a Zorbax SB 300 column using solvent A: 0.05% TFA and solvent B: 90% acetonitrile 0.045% TFA with a linear gradient, 0-67% B over 60 mins. […] Resuspended membranes were kept on ice until they were added to the wells of the plate. Binding Protocol for 400 microassays per vial: • Assays were performed in 96 well polypropylene plates. […] This was incubated for 1 hr at 37° C.
Usually pIC50 stands for −log10 of the IC50, conventionally taken in molar units. Turning to `N=C(N)NCCC[C@@H]1N[C@H](CNC(=O)c2ccc(-c3ccccc3)cc2)CCN(CC(c2ccccc2)c2ccccc2)C1=O` [Compound 108, N-(((3S,5S)-1-(2,2-diphenylethyl)-3-(3-guanidinopropyl)-2-oxo-1,4-diazepan-5-yl)methyl)biphenyl-4-carboxamide], the pIC50 is > 7.00.
`N=C(N)NCCC[C@@H]1N[C@H](CNC(=O)c2cc3ccccc3[nH]2)CCN(CC(c2ccccc2)c2ccccc2)C1=O` [Compound 109, N-(((3S,5S)-1-(2,2-diphenylethyl)-3-(3-guanidinopropyl)-2-oxo-1,4-diazepan-5-yl)methyl)-1H-indole-2-carboxamide]: the pIC50 is > 6.00.
With `NCCCC[C@@H]1N[C@H](CNC(=O)Cc2c[nH]c3ccccc23)CCN(Cc2cccc3ccccc23)C1=O` [Compound 120, N-(((3S,5S)-3-(4-aminobutyl)-1-(naphthalen-1-ylmethyl)-2-oxo-1,4-diazepan-5-yl)methyl)-2-(1H-indol-3-yl)acetamide], the pIC50 is > 5.00.
With `NCCCC[C@@H]1N[C@H](CNC(=O)Cc2ccc(-c3ccccc3)cc2)CCN(Cc2ccc3ccccc3c2)C1=O` [Compound 121, N-(((3S,5S)-3-(4-aminobutyl)-1-(naphthalen-2-ylmethyl)-2-oxo-1,4-diazepan-5-yl)methyl)-2-(biphenyl-4-yl)acetamide], the pIC50 is > 6.00.
For the molecule `NCCCC[C@@H]1N[C@H](CNC(=O)[C@@H]2Cc3ccccc3CN2)CCN(CC(c2ccccc2)c2ccccc2)C1=O` [Compound 127, (S)—N-(((3S,5S)-3-(4-aminobutyl)-1-(2,2-diphenylethyl)-2-oxo-1,4-diazepan-5-yl)methyl)-1,2,3,4-tetrahydroisoquinoline-3-carboxamide], the pIC50 is > 5.00.
As to `NCCCC[C@@H]1N[C@H](CNC(=O)[C@H]2Cc3ccccc3CN2)CCN(CC(c2ccccc2)c2ccccc2)C1=O` [Compound 128, (R)—N-(((3S,5S)-3-(4-aminobutyl)-1-(2,2-diphenylethyl)-2-oxo-1,4-diazepan-5-yl)methyl)-1,2,3,4-tetrahydroisoquinoline-3-carboxamide], the pIC50 is > 6.00.
Turning to `NCCCC[C@@H]1N[C@H](CNC(=O)c2cc3ccccc3o2)CCN(CC(c2ccccc2)c2ccccc2)C1=O` [Compound 129, N-(((3S,5S)-3-(4-aminobutyl)-1-(2,2-diphenylethyl)-2-oxo-1,4-diazepan-5-yl)methyl)benzofuran-2-carboxamide], the pIC50 is > 5.00.
`CNC(=N)NCCC[C@@H]1N[C@H](CNC(=O)[C@H]2Cc3ccccc3CN2)CCN(CC(c2ccccc2)c2ccccc2)C1=O` [Compound 130, (R)—N-(((3S,5S)-1-(2,2-diphenylethyl)-3-(3-(3-methylguanidino)propyl)-2-oxo-1,4-diazepan-5-yl)methyl)-1,2,3,4-tetrahydroisoquinoline-3-carboxamide]: the pIC50 is > 5.00.
As to `N=C(N)NCCC[C@@H]1N[C@H](CNC(=O)[C@@H]2Cc3ccccc3CN2)CCN(CC(c2ccccc2)c2ccccc2)C1=O` [Compound 131, (S)—N-(((3S,5S)-1-(2,2-diphenylethyl)-3-(3-guanidinopropyl)-2-oxo-1,4-diazepan-5-yl)methyl)-1,2,3,4-tetrahydroisoquinoline-3-carboxamide], the pIC50 is > 5.00.
As for `N=C(N)NCCC[C@@H]1N[C@H](CNC(=O)c2cc3ccccc3o2)CCN(CC(c2ccccc2)c2ccccc2)C1=O` [Compound 132, N-(((3S,5S)-1-(2,2-diphenylethyl)-3-(3-guanidinopropyl)-2-oxo-1,4-diazepan-5-yl)methyl)benzofuran-2-carboxamide], the pIC50 is > 5.00.
Then `N=C(N)NCCC[C@@H]1N[C@H](CNC(=O)[C@H]2Cc3ccccc3CN2)CCN(CC(c2ccccc2)c2ccccc2)C1=O` [Compound 134, (R)—N-(((3S,5S)-1-(2,2-diphenylethyl)-3-(3-guanidinopropyl)-2-oxo-1,4-diazepan-5-yl)methyl)-1,2,3,4-tetrahydroisoquinoline-3-carboxamide], with > 6.00; and `N=C(N)NCCC[C@@H]1N[C@H](CNC(=O)c2cc3ccccc3s2)CCN(CC(c2ccccc2)c2ccccc2)C1=O` [Compound 135, N-(((3S,5S)-1-(2,2-diphenylethyl)-3-(3-guanidinopropyl)-2-oxo-1,4-diazepan-5-yl)methyl)benzo[b]thiophene-2-carboxamide], with > 6.00; and `COc1ccccc1/C=C/C(=O)NC[C@@H]1CCN(CC(c2ccccc2)c2ccccc2)C(=O)[C@H](CCCNC(=N)N)N1` [Compound 169, (E)-N-(((3S,5S)-1-(2,2-diphenylethyl)-3-(3-guanidinopropyl)-2-oxo-1,4-diazepan-5-yl)methyl)-3-(2-methoxyphenyl)acrylamide], with > 6.00.
For `C/C(=C\c1ccccc1)C(=O)NC[C@@H]1CCN(CC(c2ccccc2)c2ccccc2)C(=O)[C@H](CCCNC(=N)N)N1` [Compound 173, (E)-N-(((3S,5S)-1-(2,2-diphenylethyl)-3-(3-guanidinopropyl)-2-oxo-1,4-diazepan-5-yl)methyl)-2-methyl-3-phenylacrylamide], the pIC50 was > 6.00.
As for `N=C(N)NCCC[C@@H]1N[C@H](CNC(=O)C2CC2c2ccccc2)CCN(CC(c2ccccc2)c2ccccc2)C1=O` (stereo partly drawn) [Compound 174, N-(((3S,5S)-1-(2,2-diphenylethyl)-3-(3-guanidinopropyl)-2-oxo-1,4-diazepan-5-yl)methyl)-2-phenylcyclopropanecarboxamide], the figure is > 6.00; as for `N=C(N)NCCC[C@@H]1N[C@H](CNC(=O)/C=C/c2ccccc2O)CCN(CC(c2ccccc2)c2ccccc2)C1=O` [Compound 189, (E)-N-(((3S,5S)-1-(2,2-diphenylethyl)-3-(3-guanidinopropyl)-2-oxo-1,4-diazepan-5-yl)methyl)-3-(2-hydroxyphenyl)acrylamide], > 6.00; as for `N=C(N)NCCC[C@@H]1N[C@H](CNC(=O)/C(F)=C/c2ccccc2)CCN(CC(c2ccccc2)c2ccccc2)C1=O` [Compound 195, (Z)-N-(((3S,5S)-1-(2,2-diphenylethyl)-3-(3-guanidinopropyl)-2-oxo-1,4-diazepan-5-yl)methyl)-2-fluoro-3-phenylacrylamide], > 6.00.
Then `CC(CN1CC[C@@H](CNC(=O)c2ccc3ccccc3c2)N[C@@H](CCCNC(=N)N)C1=O)(c1ccccc1)c1ccccc1` [Compound 200, N-(((3S,5S)-1-(2,2-diphenylpropyl)-3-(3-guanidinopropyl)-2-oxo-1,4-diazepan-5-yl)methyl)-2-naphthamide], with > 6.00.
For `N=C(N)NCCC[C@@H]1N[C@H](CNC(=O)c2ccc3ccccc3c2)CCN(CC2CCCCC2)C1=O` [Compound 201, N-(((3S,5S)-1-(cyclohexylmethyl)-3-(3-guanidinopropyl)-2-oxo-1,4-diazepan-5-yl)methyl)-2-naphthamide], the pIC50 is > 6.00.
As to `N=C(N)NCCC[C@@H]1N[C@H](CNC(=O)c2ccc3ccccc3c2)CCN(CC23CC4CC(CC(C4)C2)C3)C1=O` [Compound 202, N-(((3S,5S)-1-(1-adamantylmethyl)-3-(3-guanidinopropyl)-2-oxo-1,4-diazepan-5-yl)methyl)-2-naphthamide], the pIC50 was > 6.00.
As for `C[C@@H](C(c1ccccc1)c1ccccc1)N1CC[C@@H](CNC(=O)c2ccc3ccccc3c2)N[C@@H](CCCNC(=N)N)C1=O` [Compound 203, N-(((3S,5S)-1-((S)-1,1-diphenylpropan-2-yl)-3-(3-guanidinopropyl)-2-oxo-1,4-diazepan-5-yl)methyl)-2-naphthamide], the pIC50 is > 7.00.
`C[C@H](C(c1ccccc1)c1ccccc1)N1CC[C@@H](CNC(=O)c2ccc3ccccc3c2)N[C@@H](CCCNC(=N)N)C1=O` [Compound 204, N-(((3S,5S)-1-((R)-1,1-diphenylpropan-2-yl)-3-(3-guanidinopropyl)-2-oxo-1,4-diazepan-5-yl)methyl)-2-naphthamide]: the pIC50 was > 6.00.
In the case of `N=C(N)NCCC[C@@H]1N[C@H](CNC(=O)c2ccc3ccccc3c2)CCN(C2CCCCC2)C1=O` [Compound 205, N-(((3S,5S)-1-cyclohexyl-3-(3-guanidinopropyl)-2-oxo-1,4-diazepan-5-yl)methyl)-2-naphthamide], the pIC50 is > 6.00.
As for `C[C@@H](N1CC[C@@H](CNC(=O)c2ccc3ccccc3c2)N[C@@H](CCCNC(=N)N)C1=O)C(F)(c1ccccc1)c1ccccc1` [Compound 206, N-(((3S,5S)-1-((R)-1-fluoro-11-diphenylpropan-2-yl)-3-(3-guanidinopropyl)-2-oxo-1,4-diazepan-5-yl)methyl)-2-naphthamide], the pIC50 is > 6.00.
Take `CCOc1ccc(/C=C/C(=O)NC[C@@H]2CCN(CC(c3ccccc3)c3ccccc3)C(=O)[C@H](CCCNC(=N)N)N2)cc1` [Compound 210, (E)-N-(((3S,5S)-1-(2,2-diphenylethyl)-3-(3-guanidinopropyl)-2-oxo-1,4-diazepan-5-yl)methyl)-3-(4-ethoxyphenyl)acrylamide]: the pIC50 is > 7.00.
Then `NCCC[C@@H]1N[C@H](CNC(=O)c2ccc3cc(Br)ccc3c2)CCN(CC(c2ccccc2)c2ccccc2)C1=O` [Compound 211, N-(((3S,5S)-3-(3-aminopropyl)-1-(2,2-diphenylethyl)-2-oxo-1,4-diazepan-5-yl)methyl)-6-bromo-2-naphthamide], with > 7.00.
